In US20030092759A1, “Anticonvulsant derivatives useful for the treatment of restless limb syndrome and periodic limb movement disorder” (priority 2001, published 2003):
Where a name gives a salt, the structure may show the parent alone.

Experiments:
[1] = side effects reported in the clinical case studies; assay type: in vivo, human; settings: Example 2, person; 5 mg/day for the RLS
[2] = system: restless legs syndrome (RLS); assay: clinical case studies of patients with restless legs syndrome; assay type: in vivo, human; settings: for benefit in controlling the RLS, earlier treatment: used in the previous 15 years; for benefit of earlier treatment of the RLS: before topiramate
Experimental: The ability of the compounds of formula I to treat restless legs syndrome, restless arm syndrome and associated sleep disorders is based on the results of recent clinical case studies, as described in more detail below.
(§1) Prior to treatment, within 15 minutes of falling asleep, the patient was awakened by uncontrollable jerking of their legs. […] The patient had also used lorazepam and alprazolam to treat the RLS, with some benefit.
(§2) The patient was switched to topiramate, initially at 25 mg, with a gradual increase in dosage to 75 mg/day for treatment of the RLS. Sertraline HCl at 100 mg/day was added for the treatment of their concurrent depression. Lorazepam and alprazolam were discontinued. The RLS and depression symptoms were both reduced.
In the previous 15 years, the patient had also used carisoprodol, chlordiazepoxide HCl, clorazepate dipotassium, meprobamate, phenobarbital, flurazepam HCl, promethazine, levodopa and carbidopa, with some benefit in controlling the RLS.
Topiramate was started at 25 mg/day and increased gradually to 300 mg/day during a six month period.
The patient was a person, with diagnosed recurrent unipolar depression, post traumatic stress disorder, panic disorder, nicotine, alcohol and cannabis dependency. The patient also complained of migraine headaches and restless leg syndrome.
The patient was started at 25 mg HS topiramate, with dosage increased to 100 mg HS and then further increased to a final dosage of 200 mg HS. Concurrent pharmacotherapy included clonazepam at 2 mg/day, desipramine HCl at 10 mg/day, clonidine at […] b.i.d., mirtazepine at 15 mg HS, triamcinolone acetonide prn, albuterol prn, potassium at […], A to Z multivitamin 1×/day and fluticasone propionate prn.

[3] = system: simple and complex partial seizures and secondarily generalized seizures; settings: adjunctive therapy or monotherapy; cited from earlier work
seizures = settings: several rodent models of epilepsy; cited from earlier work
kindled epilepsy = settings: animal model of kindled epilepsy; cited from earlier work
depression = assay: clinical case study, concurrent depression (Example 1); assay type: in vivo, human; settings: Example 1, patient; sertraline HCl 100 mg/day added to topiramate 75 mg/day
Experimental: as §1, §2

RLS symptoms = settings: case study report, Hargrave and Beckley 1998; cited from earlier work

OC(CCN1CCCCC1)(c1ccccc1)C1CCCCC1 (stereo not shown) [trixenryphenidyl]
side effects [1]: dry mouth, blurred vision and amnesia

CNC1=Nc2ccc(Cl)cc2C(c2ccccc2)=[N+]([O-])C1 [chlordiazepoxide HCl]
benefit in controlling the RLS, earlier treatment ([2]; Example 2, person): some benefit

CC1(C)O[C@@H]2[C@@H](CO[C@@]3(COS(N)(=O)=O)OC(C)(C)O[C@@H]23)O1 [topiramate, 2,3:4,5-bis-O-(1-methylethylidene)-β-D-fructopyranose sulfamate]
RLS symptoms ([2]; Example 1, patient, topiramate 25 mg increased to 75 mg/day, with sertraline HCl 100 mg/day, lorazepam and alprazolam discontinued): reduced | restless legs syndrome symptoms, patient report ([2]; Example 2, person, 25 mg/day increased to 300 mg/day during six months): successfully reduced | effectiveness for RLS compared with carisoprodol, patient report ([2]; Example 3, person): more effective than carisoprodol | effectiveness for RLS of topiramate and clonazepam in combination, patient report ([2]; Example 3, person, the two drugs in combination): more effective than either drug alone | effectiveness for restless leg syndrome compared with clonazepam 6 mg HS, patient report ([2]; Example 3, person, topiramate 100 mg HS): as effective as clonazepam 6 mg HS | efficacy in treating seizures in clinical trials [3]: effective | block of seizures (seizures): effectively block seizures | block of seizures (kindled epilepsy): effectively block seizures

Cc1nnc2n1-c1ccc(Cl)cc1C(c1ccccc1)=NC2 [alprazolam]
benefit of earlier treatment of the RLS ([2]; Example 1, patient): some benefit

CN[C@H]1CC[C@@H](c2ccc(Cl)c(Cl)c2)c2ccccc21 [Sertraline HCl]
depression symptoms (depression): reduced | change of RLS symptoms associated with the drug (RLS symptoms): increase in RLS symptoms

CC(CN1c2ccccc2Sc2ccccc21)N(C)C (stereo not shown) [promethazine]
benefit in controlling the RLS, earlier treatment ([2]; Example 2, person): some benefit

O=C1CN=C(c2ccccc2Cl)c2cc([N+](=O)[O-])ccc2N1 [clonazepam]
effect on the RLS symptoms ([2]; Example 2, person, 2-4 mg/day): very little positive effect

O=C1Nc2ccc(Cl)cc2C(c2ccccc2Cl)=NC1O (stereo not shown) [lorazepam]
benefit of earlier treatment of the RLS ([2]; Example 1, patient): some benefit

CCN(CC)CCN1C(=O)CN=C(c2ccccc2F)c2cc(Cl)ccc21 [flurazepam HCl]
benefit in controlling the RLS, earlier treatment ([2]; Example 2, person): some benefit

N[C@@H](Cc1ccc(O)c(O)c1)C(=O)O [levodopa]
benefit in controlling the RLS, earlier treatment ([2]; Example 2, person): some benefit

CCCC(C)(COC(N)=O)COC(N)=O [meprobamate]
benefit in controlling the RLS, earlier treatment ([2]; Example 2, person): some benefit

CCCC(C)(COC(N)=O)COC(=O)NC(C)C (stereo not shown) [carisoprodol]
benefit in controlling the RLS, earlier treatment ([2]; Example 2, person): some benefit

O=C(O)C1N=C(c2ccccc2)c2cc(Cl)ccc2NC1=O (stereo not shown) [clorazepate dipotassium]
benefit in controlling the RLS, earlier treatment ([2]; Example 2, person): some benefit

C[C@@](Cc1ccc(O)c(O)c1)(NN)C(=O)O [carbidopa]
benefit in controlling the RLS, earlier treatment ([2]; Example 2, person): some benefit
